Source: patent US11612634B2 (priority 2020, dated 2023)
Where two headings read alike, the source gives them in different places.

How the values were obtained:
Type in all cases: in vivo
[1] = system: Carr-induced inflammatory pain rat model; assay: Analgesic effect on mechanical hyperalgesia (PWT) in Carr-induced inflammatory pain rat model
Protocol: The mechanical hyperalgesia of rats was measured by 38500-pressure application measurement (PAM) system (Ugo Basile Biological Research Apparatus, Comerio-Varese, Italy), which consisted of a hand-held part and an integrated electronic part. The hand-held part was a force sensor which was designed according to a Randall-Selitto algesimeter. The integrated electronic part was configured to automatically record a maximum PWT applied to the left hind paw of the rats.
The Carr-induced inflammatory pain model was built according to a published method (Alessandri-Haber N, et al. Neurosci. Vol 29(19), pp. 6217-6288, 2009) for evaluating an analgesic effect of drugs administered by intraplantar injection. […] Those rats with a PWT lower than 100 gf were considered to be a desired Carr-induced inflammatory pain model, those rats with the PWT higher than 100 gf was removed.
(S1) A total of 18 healthy adult SD rats, weighing 180-220 g, were selected, numbered on tails and placed in the same cage.
(S2) The rats were maintained in a measuring room for 2 h for adaptation.
The measurement was repeated 3-5 times for each rat with an interval of 5-10 min. The results of multiple PWT measurements were averaged as the Baseline (BL) (unit: g). After that, 6 μL of 1 wt % Carr was intradermally injected into the plantar surface of the hind paw to build an inflammatory pain rat model.
(S4) The PWT of the left hind paw of each rat was measured 1 h after the Carr injection. Rats with a higher inflammatory threshold and rats with a lower inflammatory threshold were mixed and equally divided into three groups (group A, group B and group C), each for six rats, such that any two groups of rats had similar distribution of inflammatory threshold. The groups A, B and C were intradermally injected with normal saline, 5 mg/kg of morphine and 2 μg/kg of the short peptide P10581, respectively, at the plantar surface of the left hind paw. 1 h later, the PWT of the left hind paw of the rats in each group was measured 3-5 times at an interval of 5-10 min. The multiple PWT measurement results were averaged as the practical PWT (unit: g). Then the drug was injected every 2 h according to the above-mentioned administration dose and time, and the corresponding PWT was recorded (six injections in total).
(1) 24 healthy adult SD rats, weighing 180-220 g, were selected, reinjected with 6 μL of a 1 wt % Carr solution and divided into 4 groups randomly and averagely (i.e., groups A-D). The group A was injected with normal saline; the group B was intradermally injected with 0.1 μg/kg of the short peptide P10581 through the plantar surface of the left hind paw; the group C was intradermally injected with 0.1 μg/kg of the short peptide P10581 and then with 5 mg/kg of morphine 30 min later through the plantar surface of the left hind paw; and the group D was intradermally injected with 0.05 μg/kg of the short peptide P10581, and then with 5 mg/kg of morphine 30 min later through the plantar surface of the left hind paw. 1 h later, the PWT of each group was recorded when the mechanical withdrawal of the left hind paw occurred, and each rat was measured 3-5 times at an interval of 5-10 min.
(2) The drug was injected every 2 h according to the above-mentioned administration dose and time (seven times in total), and the PWT was recorded.
(S1) A total of 20 healthy adult SD rats (half male and half female), weighing 180-220 g, were selected, numbered on tails and transferred to the same cage.
(S4) The PWT of the left hind paw of each rat was measured 1 h after the Carr injection.

[2] = system: morphine analgesic tolerance, neuropathic pain rat model; conditions: for analgesic effect of morphine restored: after 5-day continuous administration
Protocol: (1) 15 healthy adult SD rats, weighing 180-220 g, were selected to build a CCI-induced neuropathic pain model. 6 days after the modeling, successful models were randomly divided into 3 groups, where the group A was injected with 0.1 μg/kg of the short peptide P10581; the group B was injected with 5 mg/kg of the morphine; and the group C was injected with 0.1 μg/kg of the short peptide P10581, and then with 5 mg/kg of the morphine 30 min later. 1 h later, the PWT of each group was recorded.
(2) Each group was injected with the drug in the afternoon on the 6th day after the modeling, and from the 7th day to the 12th day, the drug administration was performed at 9:00 a.m. and 5:30 p.m. (5 mg/kg of morphine twice a day; and 0.1 μg/kg of the short peptide P10581 was administered 30 min before the morphine injection). The PWT of rats in each group before and after administration in the morning was measured every other day.
(1) 30 healthy adult SD rats, weighing 180-220 g, were selected to build a CCI-induced neuropathic pain model. Those successfully-established models were randomly divided into 6 groups on the 6th day, where the groups A was injected with normal saline; and the groups B-F were injected with 0.01 μg/kg, 0.025 μg/kg, 0.1 μg/kg, 0.2 μg/kg and 0.4 μg/kg of the short peptide P10581, respectively. 30 min later, the groups A-F were further injected with 5 mg/kg of the morphine, and 1 h later, the PWT of each group was recorded.
(2) Each group was injected with the drug in the afternoon on the 6th day after modeling, and from the 7th day to the 10th day, the drug administration was performed at 9:00 a.m. and 5:30 p.m. (injected twice a day consecutively for 5 days), and the PWT of each group before and after the administration in the morning was measured every other day.
In the FIG. 10B, ΔPWT (drug) and ΔPWT (Baseline) were calculated as follows: ΔPWT(drug)=PWT(post-drug)−PWT(pre-drug); and ΔPWT(Baseline)=PWT(before CCI)−PWT(after CCI).
The intensity of the relieving effect on the tolerance was represented by ΔPWT (drug)/ΔPWT (Baseline), where the ΔPWT (drug) indicated a difference between pain thresholds before and after Mor+P10581 injection in the morning.

[3] = system: morphine analgesic tolerance, neuropathic pain rat model
Protocol: (1) 18 healthy adult SD rats, weighing 180-220 g, were selected to build a CCI-induced neuropathic pain model. On the 7th day after modeling, those successfully-established models were randomly divided into 3 groups, where the group A was injected with normal saline; the group B was injected with morphine (15 μg, 10 μL); and the group C was injected with 0.2 μg/kg of the short peptide P10581, and then injected with morphine (15 μg, 10 μL) 30 min later. 1 h later, the PWT of each group was recorded.
(2) Each group was injected with the drug respectively at 9:00 a.m. and 5:30 p.m. from 7th day to 11th day after modeling, and the PWT of each group was measured before and after the administration in the morning every day.

[4] = 2 μg/kg i.d. plantar, every 2 h, six injections

CN1CC[C@]23c4c5ccc(O)c4O[C@H]2[C@@H](O)C=C[C@H]3[C@H]1C5 [morphine, reference compound]
analgesic effect / tolerance after repeated injection ([1]; rat, in vivo): gradually declined analgesic effect with the increase in the number of injections
analgesic effect of morphine alone ([2]; rat, in vivo): almost completely disappeared
analgesic effect of morphine on neuropathic pain ([3]; rat, in vivo): completely disappeared

WKCNPNDDKCCRPKLKC [P10581]
analgesic effect on hyperalgesia, low dose ([1]; 0.1 μg/kg i.d., every 2 h, seven injections): no relieving effect on the hyperalgesia in rats
duration of analgesic effect ([1]; 2 μg/kg i.d. plantar, every 2 h): more than 12 h
analgesic effect on Carr-induced inflammatory pain threshold (PWT) [1, 4]: completely reverse the Carr-induced inflammatory pain threshold
analgesic tolerance after repeated injection [1, 4]: without developing the analgesic tolerance
effect on morphine analgesic tolerance ([2]; 0.1 μg/kg peptide 30 min before 5 mg/kg morphine, twice a day): partially relieved the morphine analgesic tolerance
restoration of analgesic effect of morphine ([2]; 0.1 μg/kg peptide + 5 mg/kg morphine, 5th day): restored by half
analgesic effect of morphine restored, ΔPWT (drug)/ΔPWT (Baseline) ([2]; 0.2 μg/kg peptide, after 3-day consecutive injection of morphine): 90.1%
analgesic effect of morphine restored ([2]; 0.2 μg/kg peptide): higher than 60%
effect on morphine analgesic tolerance ([2]; 0.4 μg/kg peptide + 5 mg/kg morphine (FIGS. 10A, 10B)): completely reversed
effect on morphine analgesic tolerance ([2]; 0.4 μg/kg peptide, after 3-day consecutive injection of morphine): completely reverse the morphine analgesic tolerance
analgesic effect of morphine restored ([2]; 0.4 μg/kg peptide): higher than 85%
dose at which morphine analgesic tolerance is effectively relieved ([2]; neuropathic pain, rats): ≥ 0.01 µg/kg
effect on morphine analgesic tolerance ([3]; 0.2 μg/kg peptide intrathecal 30 min before morphine 15 μg): completely eliminated
